pIC50: −log10 of the molar value.
Assays:
Assay type in all cases: cell-based
[1] = test system: cultured human mast cells (CHMC); experiment: CHMC low cell density IgE activation: tryptase assay
Procedure: Pellet CHMC cells (980 rpm, 10 min) and resuspend in pre-warmed MT. Add 65 ul of cells to each 96-well plate. Depending on the degranulation activity for each particular CHMC donor, load 1000-1500 cells/well. Mix four times followed by a 1 hr incubation at 37° C. […] Stimulate cells by adding 25 ul of 6× anti-IgE solution to the appropriate plates. Add 25 ul MT to un-stimulated control wells. Mix twice following addition of the anti-IgE. Incubate at 37° C. for 30 minutes. […] Spin plates at 1000 rpm for 10 min to pellet cells. Transfer 25 ul of supernatant to a 96-well black bottom plate and add 100 ul of freshly diluted tryptase substrate solution to each well. Incubate plates at room temperature for 30 min.

[2] = test system: cultured human mast cells (CHMC); experiment: CHMC low cell density ionomycin activation: tryptase assay
[3] = test system: Human Jurkat T-cells (clone N); experiment: Jurkat T-cell activation (anti-TCR, CD69 upregulation)
Outline: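 Jurkat cells in RPMI + 5% FBS preincubated with compound 1 h at 37 °C, then stimulated with anti-TCR C305 at 500 ng/ml for 20 h. CD69 surface expression stained with anti-CD69-APC and read by flow cytometry; IC50 versus solvent-only control.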

[4] = low cell density, read-out: CHMC anti-IgE Tryptase
[5] = low cell density, read-out: CHMC Ionomycin Tryptase
[6] = Low Density, read-out: CHMC Ionomycin Tryptase

Structure (SMILES) | pIC50 [1, 4] | pIC50 [2, 5] | also measured
O=C(NCC(O)CO)C1Cc2cc(Nc3ncc(F)c(Nc4ccc(OC(F)(F)F)c(Cl)c4)n3)ccc2O1 (mixture of isomers) [Compound R926958] | 6.45 | < 5.00 | 
COc1cc(Nc2ncc(F)c(Nc3ccc4c(c3)NC(=O)C(CCO)O4)n2)cc(OC)c1 (racemic) [Compound R908950] | 7.13 | 4.32 | 
O=C(NCCO)C1Cc2cc(Nc3ncc(F)c(Nc4ccc(OC(F)(F)F)c(Cl)c4)n3)ccc2O1 (racemic) [Compound R926959] | 6.52 | < 5.00 | 
CN(CCO)C(=O)C1Cc2cc(Nc3ncc(F)c(Nc4ccc(OC(F)(F)F)c(Cl)c4)n3)ccc2O1 (racemic) [Compound R926960] | 6.40 | < 5.00 | 
COc1ccc(Nc2nc(Nc3cccc(OCC(=O)NCC(O)CO)c3)ncc2F)cc1Cl (racemic) [Compound R926964] | 6.43 | < 5.00 | 
CNCC1Cc2cc(Nc3ncc(F)c(Nc4ccc(OC)c(Cl)c4)n3)ccc2O1 (racemic) [Compound R927045] | 6.27 | < 5.00 | 
CNC(=O)COc1cccc(Nc2ncc(F)c(Nc3ccc4c(c3)C(NC(=O)OC(C)(C)C)CCO4)n2)c1 (racemic) [Compound R950405] | 5.87 | < 5.00 | 
CNC(=O)COc1cccc(Nc2ncc(F)c(Nc3ccc4c(c3)C(N(C)C(=O)OC(C)(C)C)CCO4)n2)c1 (racemic) [Compound R950415] | 5.28 | 4.79 | 
CNC(=O)COc1cccc(Nc2ncc(F)c(Nc3ccc4c(c3)C(N(C)C(=O)CN(C)C)CCO4)n2)c1 (racemic) [Compound R950419] | 5.49 | < 5.00 | 
CC(C)(C)OC(=O)NC1CCOc2ccc(Nc3nc(Nc4ccc5cn[nH]c5c4)ncc3F)cc21 (racemic) [Compound R950422] | 6.32 | 5.19 | 
NC1CCOc2ccc(Nc3nc(Nc4ccc5cn[nH]c5c4)ncc3F)cc21 (racemic) [Compound R950423] | 7.30 | < 5.00 | 
COc1c(Cl)cc(Nc2ncc(F)c(Nc3ccc4c(c3)C(N)CCO4)n2)cc1Cl (racemic) [Compound R950424] | 6.63 | 5.37 | 
COc1cc(Nc2ncc(F)c(Nc3ccc4c(c3)C(N)CCO4)n2)cc(OC)c1 (racemic) [Compound R950426] | 6.85 | 4.52 | 
CCN(CC)CCNC(=O)c1ccc(Nc2ncc(F)c(Nc3ccc4c(c3)NC(=O)C(CCO)O4)n2)cc1 (racemic) [Compound R950448] | 5.97 | 4.44 | 
NC(=O)c1ccc(Nc2ncc(F)c(Nc3ccc4c(c3)NC(=O)C(CCO)O4)n2)cc1 (racemic) [Compound R950454] | 5.06 | < 5.00 | 
COc1c(Cl)cc(Nc2ncc(F)c(Nc3ccc4c(c3)NC(=O)[C@H](C)O4)n2)cc1Cl [Compound R908946] | 6.29 | < 5.00 | 
COc1c(Cl)cc(Nc2ncc(F)c(Nc3ccc4c(c3)NC(=O)[C@@H](C)O4)n2)cc1Cl [Compound R908947] | 6.30 | < 5.00 | 
COc1ccc(Nc2ncc(F)c(Nc3ccc4c(c3)NC(=O)C(CCO)O4)n2)cc1Cl (centres unmarked) [Compound R908951] | 7.07 | 5.26 | 
CNC(=O)COc1cccc(Nc2ncc(F)c(Nc3ccc4c(c3)C(=O)NC(=O)C4(C)C)n2)c1 [Compound R909318] | 5.99 | < 5.00 | 
Cc1cc(Nc2ncc(F)c(Nc3ccc4c(c3)C(=O)NC(=O)C4(C)C)n2)cc(Cl)c1O [Compound R909320] | 6.54 | < 5.00 | 
COc1cc(Nc2ncc(F)c(Nc3ccc4c(c3)C(=O)NC(=O)C4(C)C)n2)cc(OC)c1 [Compound R909323] | < 5.00 | < 5.00 | 
O=C(NNc1nc(Nc2ccc3c(c2)OCCO3)ncc1F)c1ccc2c(c1)OCO2 [Compound R926406] |  |  | pIC50 ([1]; Low Density CHMC, anti-IgE activation, tryptase release, read-out: CHMC anti-IgE Tryptase IC50): < 5.00; pIC50 ([2]; Low Density CHMC, ionomycin activation, tryptase release, read-out: CHMC Ionomycin Tryptase IC50): < 5.00
CC1=C(Nc2ncc(F)c(Nc3ccc4c(c3)OCCO4)n2)N(c2ccccc2)CO1 [Compound R926793] |  |  | pIC50 ([1]; Homo sapiens, Mast cell, Low Density, read-out: CHMC anti-IgE Tryptase): 5.51; pIC50 ([2]; Homo sapiens, Mast cell, Low Density, read-out: CHMC Ionomycin Tryptase): < 5.00
O=C(O)C1Cc2cc(Nc3ncc(F)c(Nc4ccc(OC(F)(F)F)c(Cl)c4)n3)ccc2O1 (centres unmarked) [Compound R926957] | 5.82 | < 5.00 | 
CC(C)NC(=O)C1Cc2cc(Nc3ncc(F)c(Nc4ccc(OC(F)(F)F)c(Cl)c4)n3)ccc2O1 (centres unmarked) [Compound R926961] | 5.92 | < 5.00 | 
CNC(=O)COc1cccc(Nc2ncc(F)c(Nc3ccc(OC(C)C)nc3)n2)c1 [Compound R926962] | 6.69 | < 5.00 | 
COc1ccc(Nc2nc(Nc3cccc(OCC(=O)NCCO)c3)ncc2F)cc1Cl [Compound R926963] | 6.81 | < 5.00 | 
CNC(=O)COc1cccc(Nc2ncc(F)c(Nc3ccc(OCc4ccccc4)c(Cl)c3)n2)c1 [Compound R926966] | 6.27 | < 5.00 | 

Structure (SMILES) | pIC50 [1, 4] | pIC50 [2, 5] | also measured
COc1ccc(Nc2nc(Nc3cccc(OCC(=O)NC4CC4)c3)ncc2F)cc1Cl [Compound R926967] | 6.59 | < 5.00 | 
COc1ccc(Nc2nc(Nc3cccc(OCC(=O)NC4CCC4)c3)ncc2F)cc1Cl [Compound R926969] | 6.44 | < 5.00 | 
COc1ccc(Nc2nc(Nc3cc(C)c(OC)c(Cl)c3)ncc2F)cc1Cl [Compound R926972] | 5.28 | < 5.00 | 
COc1ccc(Nc2nc(Nc3ccc4oc(CN(C)C)cc4c3)ncc2F)cc1Cl [Compound R926978] | 6.00 | 4.74 | 
CN(C)Cc1cc2cc(Nc3ncc(F)c(Nc4ccc(Cl)c(Cl)c4)n3)ccc2o1 [Compound R926980] | 6.17 | 5.26 | 
CNC(=O)n1ccc2ccc(Nc3nc(Nc4cc(OC)cc(OC)c4)ncc3F)cc21 [Compound R926995] | 5.02 | < 5.00 | 
CNC(=O)COc1cccc(Nc2ncc(F)c(Nc3ccc(OCC(=O)NC)c(Cl)c3)n2)c1 [Compound R927043] | 6.35 | < 5.00 | 
CNC(=O)COc1cccc(Nc2ncc(F)c(Nc3ccc(OCCO)c(Cl)c3)n2)c1 [Compound R927047] | 6.77 | < 5.00 | 
COc1c(Cl)cc(Nc2ncc(F)c(Nc3ccc4c(c3)NC(=O)C(C)(C)O4)n2)cc1Cl [Compound R927056] | 6.84 | 5.80 | 
CC(C)Oc1ccc(Nc2nc(Nc3ccc4c(c3)C[C@H](C(=O)O[C@@H]3C[C@H](C)CC[C@H]3C(C)C)O4)ncc2F)cc1 [Compound R927062] | 4.81 | < 5.00 | 
CC(C)[C@@H]1CC[C@@H](C)C[C@H]1OC(=O)[C@H]1Cc2cc(Nc3ncc(F)c(Nc4ccc5c(c4)NC(=O)C(F)(F)O5)n3)ccc2O1 [Compound R927063] | 6.07 | < 5.00 | 
COc1cc(Nc2ncc(F)c(Nc3ccc4c(c3)NC(=O)C(C)(C)O4)n2)cc(C(F)(F)F)c1 [Compound R927065] | 6.63 | < 5.00 | 
COc1cc(Nc2ncc(F)c(Nc3ccc(OC)c(Cl)c3)n2)cc(OC)c1 [Compound R927066] | 6.55 | 4.82 | 
COc1cc(Nc2ncc(F)c(Nc3ccc(OC(F)(F)F)c(Cl)c3)n2)cc(OC)c1 [Compound R927067] | 6.20 | 4.65 | 
COc1cc(Nc2ncc(F)c(Nc3ccc4c(c3)NC(=O)C(C)(C)O4)n2)cc(OC)c1 [Compound R927074] | 7.14 | 5.86 | 
Cc1cc(C)cc(Nc2ncc(F)c(Nc3ccc4c(c3)NC(=O)C(C)(C)O4)n2)c1 [Compound R927075] |  | 4.82 | 
Nc1cccc(Nc2nc(Nc3ccc(OC(F)(F)F)c(Cl)c3)ncc2F)n1 [Compound R927081] | 5.64 | < 5.00 | 
COc1ccc(Nc2ncc(F)c(Nc3ccc4c(c3)OCCO4)n2)cc1Cl [Compound R927084] | 6.33 | < 5.00 | 
Fc1cnc(Nc2ccc(OC(F)(F)F)c(Cl)c2)nc1Nc1ccc2c(c1)OCCO2 [Compound R927085] | 5.13 | < 5.00 | 
Cc1cccc(C)c1Nc1ncc(F)c(Nc2ccc3c(c2)OCCO3)n1 [Compound R927086] | 6.54 | < 5.00 | 
COC(=O)c1cc(Nc2nc(Nc3ccc(OC(C)C)cc3)ncc2F)cn1C [Compound R935165] |  |  | pIC50 [2, 6]: < 5.00; pIC50 [3]: < 5.00
CC1(C)Oc2ccc(Nc3nc(Nc4ccc5cn[nH]c5c4)ncc3F)cc2NC1=O [Compound R935430] |  | 5.03 | 
COc1ccc(Nc2nc(Nc3ccc4c(cnn4C)c3)ncc2F)cc1Cl [Compound R935458] |  | < 5.00 | 
Cc1cc(Nc2nc(Nc3cccc(OCCN4CCOCC4)c3)ncc2F)cc(Cl)c1O [Compound R940269] |  |  | pIC50 [2, 6]: < 5.00; pIC50 [3]: 5.72
O=C1COc2ccc(Nc3nc(Nc4cccc(Br)c4)ncc3F)nc2N1 [Compound R945455] |  | < 5.00 | 
CNC(=O)COc1cccc(Nc2ncc(F)c(Nc3ccc4c(c3)[C@H](N)CCO4)n2)c1 [Compound R950421] |  | < 5.00 | 
CC1(C)C(=O)NC(=O)c2cc(Nc3nc(Nc4ccc(C(N)=O)cc4)ncc3F)ccc21 [Compound R950453] |  | < 5.00 | 
